Values after ≈ are worked out from the molar mass of the structure shown. Like-named read-outs stand apart in the source and are kept apart here.
Assays:
[1] = biological target: T1, Pseudomonas aeruginosa LpxC enzyme (Pseudomonas aeruginosa, UniProt P47205); assay: IC50 assay, LpxC enzyme from P. aeruginosa (PA LpxC enzyme IC50); format: biochemical; conditions: LpxC enzyme 0.1 nM, 25° C., 1 hour
T1 construct: made in house; host or cells: E. coli
T1 sequence (P47205 1-303): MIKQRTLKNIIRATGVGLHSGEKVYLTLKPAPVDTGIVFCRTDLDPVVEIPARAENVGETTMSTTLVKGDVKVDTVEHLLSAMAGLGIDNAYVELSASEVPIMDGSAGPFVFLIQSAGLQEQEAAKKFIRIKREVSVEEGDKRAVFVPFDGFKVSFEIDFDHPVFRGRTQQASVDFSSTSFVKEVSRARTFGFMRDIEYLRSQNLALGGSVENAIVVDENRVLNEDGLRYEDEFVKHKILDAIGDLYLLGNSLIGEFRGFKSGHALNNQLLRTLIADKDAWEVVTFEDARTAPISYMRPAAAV
How it was run: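 IC50 values came from percent conversion, referenced to a no-enzyme control. Conversion was read by RapidFire HTMS mass spectrometry after HCl quench of the 1 h enzyme reaction.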

[2] = test system: Acinetobacter baumannii/haemolyticus, multidrug-resistant clinical isolate (AB-3167); assay: MIC determination, AB-3167; format: cell-based; conditions: Table 2, lower of duplicate values
How it was run: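 MIC read visually after overnight growth across 2-fold concentration steps in the CLSI dilution method against the multidrug-resistant clinical isolate. Duplicate determinations, lower value reported when within 2-fold, otherwise repeated; every run checked with control organisms and reference drugs.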

[3] = test system: Escherichia coli EC-1: VOGEL, mouse virulent; assay: MIC determination, EC-1; format: cell-based; conditions: Escherichia coli, read-out: EC-1 (MIC), Table 2, lower of duplicate values
How it was run: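 Duplicate runs differing by more than 2-fold were repeated, and otherwise the lower MIC was kept. The test organism was E. coli EC-1 (VOGEL, mouse virulent), incubated overnight across 2-fold compound dilutions following CLSI guidelines. The MIC was read visually as the lowest concentration inhibiting growth relative to drug-free control.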

[4] = test system: Pseudomonas aeruginosa UI-18: wild-type (PA-7); assay: MIC determination, PA-7; format: cell-based; conditions: Table 2, lower of duplicate values
Method: The in vitro antibacterial activity of compounds described in the Examples was evaluated by minimum inhibitory concentration (MIC) testing according to Clinical and Laboratory Standards Institute (CLSI). See: Clinical and Laboratory Standards Institute. Methods for Dilution Antimicrobial Susceptibility Tests for Bacteria that Grow Aerobically; Approved Standard-Eighth Edition. CLSI document M7-A8 [ISBN 1-56238-689-1]. Clinical and Laboratory Standards Institute, 940 West Valley Road, Suite 1400, Wayne, Pa. 19087-1898 USA, 2006; also Clinical and Laboratory Standards Institute. Performance Standards for Antimicrobial Susceptibility Testing; Twentieth Informational Supplement. CLSI document M100-S20 [ISBN 1-56238-716-2]. Clinical and Laboratory Standards Institute.
The MIC determination is a standard laboratory method for evaluating the antibacterial activity of a compound. The MIC represents the lowest drug concentration that inhibits visible growth of bacteria following overnight incubation. […] Typically, the drug concentration range is broken down into 2-fold increments (e.g. 0.06 μg/mL, 0.12 μg/mL. 0.25 μg/mL, 0.50 μg/mL, 1.0 μg/mL, etc.) and the various drug concentrations are all individually incubated overnight with approximately the same number of bacteria. The MIC is then determined by visually inspecting the drug effect at each concentration, and identifying the lowest drug concentration that has inhibited bacterial growth as compared to the drug free control. Typically, bacteria continue to grow at drug concentrations lower than the MIC and don't grow at concentrations at and above the MIC.
The MIC values described in Table 2 and 3 below were derived from assays wherein each test compound was evaluated in duplicate. In cases where the duplicate values varied by 0-2-fold, the lower of the two values was reported below. Generally speaking, if the duplicate values varied by more than 2-fold, the assay was considered non-valid and was repeated until the variation between duplicate runs was ≦2-fold. In line with the CLSI guidelines referred to above, both control organisms and reference compounds were utilized in each MIC assay to provide proper quality control. MIC values generated with these control organisms and reference compounds were required to fall within a defined range for the assay to be considered valid and be included herein. Those skilled in the art will recognize that MIC values can and do vary from experiment to experiment. Generally speaking, it should be recognized that MIC values often vary +/−2-fold from experiment to experiment. While a single MIC is reported for each compound and each microorganism, the reader should not conclude that each compound was only tested once. Several of the compounds were subjected to multiple tests. The data reported in Tables 2 and 3 is reflective of the compounds relative activity and different MICs may have been generated on these occasions in line with the guidelines described above.
The following bacterial strains were used in these MIC determinations:
1) Pseudomonas aeruginosa UI-18: Wild-type, labeled as PA-7 in Tables 2 and 3;

Structure (SMILES)	IC50 ([1]; Table 2, read-out: PA:IC50) [nM]	MIC [2] [µg/mL]	MIC [3] [µg/mL]	MIC [4] [µg/mL]	IC50 ([1]; PA:IC50, Table 2) [nM]
C[C@@](CCn1cc(F)c(-c2ccc(-n3ncnn3)cc2)cc1=O)(C(=O)NO)S(C)(=O)=O [Example 1, (2R)-4-{5-fluoro-2-oxo-4-[4-(2H-tetrazol-2-yl)phenyl]pyridin-1(2H)-yl}-N-hydroxy-2-methyl-2-(methylsulfonyl)butanamide]	1.49	> 64	> 64	32 (≈ 71 µM)	–
Cc1cccc(-c2cc(=O)n(CC[C@](C)(C(=O)NO)S(C)(=O)=O)cc2F)c1F [Example 2, (2R)-4-[5-Fluoro-4-(2-fluoro-3-methylphenyl)-2-oxopyridin-1(2H)-yl]-N-hydroxy-2-methyl-2-(methylsulfonyl)butanamide]	0.595	> 64	0.25 (≈ 0.603 µM)	0.25 (≈ 0.603 µM)	–
C[C@@](CCn1cc(F)c(-c2ccc(Cl)cc2)cc1=O)(C(=O)NO)S(C)(=O)=O [Example 3, (2R)-4-[4-(4-Chlorophenyl)-5-fluoro-2-oxopyridin-1(2H)-yl]-N-hydroxy-2-methyl-2-(methylsulfonyl)butanamide]	0.325	64 (≈ 154 µM)	0.25 (≈ 0.6 µM)	0.25 (≈ 0.6 µM)	–
C[C@@](CCn1cc(F)c(-c2ccccc2F)cc1=O)(C(=O)NO)S(C)(=O)=O [Example 4, (2R)-4-[5-Fluoro-4-(2-fluorophenyl)-2-oxopyridin-1(2H)-yl]-N-hydroxy-2-methyl-2-(methylsulfonyl)butanamide]	0.717	> 64	2 (≈ 4.99 µM)	0.5 (≈ 1.25 µM)	–
C[C@@](CCn1cc(F)c(-c2ccc3c(c2)CCO3)cc1=O)(C(=O)NO)S(C)(=O)=O [Example 5, (2R)-4-[4-(2,3-Dihydro-1-benzofuran-5-yl)-5-fluoro-2-oxopyridin-1(2H)-yl]-N-hydroxy-2-methyl-2-(methylsulfonyl)butanamide]	0.822	> 64	1 (≈ 2.36 µM)	1 (≈ 2.36 µM)	–
C[C@@](CCn1cc(F)c(-c2ccc(F)c(F)c2)cc1=O)(C(=O)NO)S(C)(=O)=O [Example 6, (2R)-4-[4-(3,4-Difluorophenyl)-5-fluoro-2-oxopyridin-1(2H)-yl]-N-hydroxy-2-methyl-2-(methylsulfonyl)butanamide]	0.833	> 64	1 (≈ 2.39 µM)	0.5 (≈ 1.2 µM)	–
C[C@@](CCn1cc(F)c(-c2ccc(OCC(F)(F)F)cc2)cc1=O)(C(=O)NO)S(C)(=O)=O [Example 7, (2R)-4-{5-Fluoro-2-oxo-4-[4-(2,2,2-trifluoroethoxy)phenyl]pyridin-1(2H)-yl}-N-hydroxy-2-methyl-2-(methylsulfonyl)butanamide]	0.576	> 64	0.25 (≈ 0.52 µM)	1 (≈ 2.08 µM)	–
C[C@@](CCn1cc(F)c(-c2ccc3c(c2)CCCO3)cc1=O)(C(=O)NO)S(C)(=O)=O [Example 8, (2R)-4-[4-(3,4-Dihydro-2H-chromen-6-yl)-5-fluoro-2-oxopyridin-1(2H)-yl]-N-hydroxy-2-methyl-2-(methylsulfonyl)butanamide]	0.377	> 64	0.5 (≈ 1.14 µM)	1 (≈ 2.28 µM)	–
CSc1ccc(-c2cc(=O)n(CC[C@](C)(C(=O)NO)S(C)(=O)=O)cc2F)cc1 [Example 9, (2R)-4-{5-Fluoro-4-[4-(methylthio)phenyl]-2-oxopyridin-1(2H)-yl}-N-hydroxy-2-methyl-2-(methylsulfonyl)butanamide]	–	> 64	0.25 (≈ 0.583 µM)	0.5 (≈ 1.17 µM)	0.51
CCOc1ccc(-c2cc(=O)n(CC[C@](C)(C(=O)NO)S(C)(=O)=O)cc2F)cc1 [Example 10, (2R)-4-[4-(4-Ethoxyphenyl)-5-fluoro-2-oxopyridin-1(2H)-yl]-N-hydroxy-2-methyl-2-(methylsulfonyl)butanamide]	0.823	> 64	0.25 (≈ 0.586 µM)	1 (≈ 2.34 µM)	–
CCCc1ccc(-c2cc(=O)n(CC[C@](C)(C(=O)NO)S(C)(=O)=O)cc2F)cc1 [Example 11, (2R)-4-[5-Fluoro-2-oxo-4-(4-propylphenyl)pyridin-1(2H)-yl]-N-hydroxy-2-methyl-2-(methylsulfonyl)butanamide]	0.482	> 64	0.125 (≈ 0.294 µM)	0.5 (≈ 1.18 µM)	–
C[C@@](CCn1cc(F)c(-c2ccc(S(F)(F)(F)(F)F)cc2)cc1=O)(C(=O)NO)S(C)(=O)=O [Example 12, (2R)-4-{5-Fluoro-2-oxo-4-[4-(pentafluoro-6λ-sulfanyl)phenyl]pyridin-1(2H)-yl}-N-hydroxy-2-methyl-2-(methylsulfonyl)butanamide]	1.14	> 64	4 (≈ 7.87 µM)	4 (≈ 7.87 µM)	–
Cc1cccc(-c2cc(=O)n(CC[C@](C)(C(=O)NO)S(C)(=O)=O)cc2F)c1 [Example 13, (2R)-4-[5-Fluoro-4-(3-methylphenyl)-2-oxopyridin-1(2H)-yl]-N-hydroxy-2-methyl-2-(methylsulfonyl)butanamide]	1.05	> 64	1 (≈ 2.52 µM)	1 (≈ 2.52 µM)	–
Cc1cc(-c2cc(=O)n(CC[C@](C)(C(=O)NO)S(C)(=O)=O)cc2F)ccc1F [Example 14, (2R)-4-[5-Fluoro-4-(4-fluoro-3-methylphenyl)-2-oxopyridin-1(2H)-yl]-N-hydroxy-2-methyl-2-(methylsulfonyl)butanamide]	0.758	> 64	0.5 (≈ 1.21 µM)	0.5 (≈ 1.21 µM)	–
C[C@@](CCn1cc(F)c(-c2ccc(OC3COC3)cc2)cc1=O)(C(=O)NO)S(C)(=O)=O [Example 15, (2R)-4-{5-fluoro-4-[4-(oxetan-3-yloxy)phenyl]-2-oxopyridin-1(2H)-yl}-N-hydroxy-2-methyl-2-(methylsulfonyl)butanamide]	2.05	> 64	16 (≈ 35.2 µM)	16 (≈ 35.2 µM)	–
C[C@@](CCn1cc(F)c(-c2ccc(Cl)cc2F)cc1=O)(C(=O)NO)S(C)(=O)=O [Example 16, (2R)-4-[4-(4-Chloro-2-fluorophenyl)-5-fluoro-2-oxopyridin-1(2H)-yl]-N-hydroxy-2-methyl-2-(methylsulfonyl)butanamide]	0.336	> 64	0.25 (≈ 0.575 µM)	0.5 (≈ 1.15 µM)	–
Cc1cc(-c2cc(=O)n(CC[C@](C)(C(=O)NO)S(C)(=O)=O)cc2F)ccc1-n1nccn1 [Example 37, (2R)-4-{5-Fluoro-4-[3-methyl-4-(2H-1,2,3-triazol-2-yl)phenyl]-2-oxopyridin-1(2H)-yl}-N-hydroxy-2-methyl-2-(methylsulfonyl)butanamide]	–	> 64	0.5 (≈ 1.08 µM)	1 (≈ 2.16 µM)	–
C[C@@](CCn1cc(F)c(-c2ccc3c(c2)OC(F)(F)O3)cc1=O)(C(=O)NO)S(C)(=O)=O [Example 47, (2R)-4-[4-(2,2-Difluoro-1,3-benzodioxol-5-yl)-5-fluoro-2-oxopyridin-1(2H)-yl]-N-hydroxy-2-methyl-2-(methylsulfonyl)butanamide]	–	> 64	0.25 (≈ 0.541 µM)	0.5 (≈ 1.08 µM)	–
